These results are taken from US20250144067A1, “PERSONALIZED STARVATION THERAPY FOR CANCER” (Faeth Therapeutics, Inc., priority 2021, published 2025).

Structures can show the parent of a compound that is named as a salt. Where two headings read alike, the source gives them in different places.

For assay [1], the system named is NCI-H292 lung cancer cells. Description: FDA drug screening, complete media vs cholesterol-free media with simvastatin (TABLE 2). It is filed as cell-based, human.
The test system of assay [2] is NCI-H292 lung cancer cells. The assay is described as follows: FDA drug screening, complete media vs cholesterol-free media without statin (TABLE 1). It is filed as cell-based, human.
[3] abbreviates: NCI-H292 cells, drug in cholesterol-free media with simvastatin 0.04 μM.
Setting [4] is: NCI-H292 cells, drug in complete media.
[5] abbreviates: NCI-H292 cells in cholesterol-free media without statin.
The mark [6] stands for this setting: NCI-H292 cells in complete media.
Where [7] appears, read: NCI-H292 cells, FDA drug library screen, cholesterol-free media with simvastatin 0.04 μM.
[8] abbreviates: NCI-H292 cells, FDA drug library screen, complete media.
Where [9] appears, read: complete media vs cholesterol-free media + simvastatin (0.04 μM), >0 enhanced anti-cancer activity, about 0 neutral, <0 antagonist.
[10] abbreviates: Complete minus Cholesterol-free, >0 enhanced anti-cancer activity, about 0 neutral, <0 antagonist.
The mark [11] stands for this setting: NCI-H292 cells, cholesterol-free media without statin, FDA drug library screen.
The mark [12] stands for this setting: NCI-H292 cells, complete media, FDA drug library screen.
Setting [13] is: complete media minus cholesterol-free media + simvastatin, >0 enhanced anti-cancer activity, about 0 neutral, <0 antagonist.
The mark [14] stands for this setting: NCI-H292 cells, cholesterol-free media without statin.
Setting [15] is: Complete minus Cholesterol-free, greater than 0 enhanced anti-cancer activity, about 0 neutral, below 0 antagonist.
The mark [16] stands for this setting: NCI-H292 cells, FDA drug library screen, cholesterol-free media without statin.
Where [17] appears, read: complete vs cholesterol-free media, >0 enhanced anti-cancer activity, about 0 neutral, <0 antagonist.
[18] abbreviates: NCI-H292 cells, cholesterol-free media with simvastatin 0.04 μM, FDA drug library screen (TABLE 2).
Where [19] appears, read: NCI-H292 cells, complete media, FDA drug library screen (TABLE 2).
The mark [20] stands for this setting: complete media minus cholesterol-free media + simvastatin (0.04 μM), >0 enhanced anti-cancer activity, about 0 neutral, <0 antagonist.

With Oritavancin (diphosphate), in assay [1] (setting [3]), the “Cholesterol-free media + simvastatin (0.04 μM)” value was found to be 1.021. In assay [1] (setting [4]), the “Complete Media” value was 0.8102. In addition, the Difference is on record as −0.21 in assay [1] (complete media vs cholesterol-free media + simvastatin (0.04 μM), […]) and −0.64 in assay [2] (Complete minus Cholesterol-free, […]). In addition, the Cholesterol-free in assay [2] (setting [5]) is recorded as 1.626. Besides, in assay [2] (setting [6]), the Complete was determined as 0.9877.
On to `CC(O)(CS(=O)(=O)c1ccc(F)cc1)C(=O)Nc1ccc(C#N)c(C(F)(F)F)c1` (stereo not shown) [Bicalutamide], for which, in assay [1] (setting [7]), the “Cholesterol-free media + simvastatin (0.04 μM)” value was determined as 1.219. Further, the “Complete Media” value in assay [1] (setting [8]) was 1.09. Besides, the Difference in assay [1] (setting [9]) was −0.13; in assay [2] (setting [10]), 0.00. This molecule also gave a Cholesterol-free in assay [2] (setting [11]) of 1.018. The same molecule came in with a Complete in assay [2] (setting [12]) of 1.016.
As to `CCC(=O)O[C@]1(C(=O)CCl)[C@@H](C)C[C@H]2[C@@H]3CCC4=CC(=O)C=C[C@]4(C)[C@@]3(F)[C@@H](O)C[C@@]21C` [Clobetasol propionate], the “Cholesterol-free media + simvastatin (0.04 μM)” value in assay [1] (NCI-H292 cells, cholesterol-free media with simvastatin 0.04 μM, cell growth value in FDA drug screen) came out at 0.7256. For the same molecule, the “Complete Media” value in assay [1] (NCI-H292 cells, complete media, cell growth value in FDA drug screen) is reported as 0.7474. In addition, the Difference in assay [1] (setting [13]) is recorded as 0.02; in assay [2] (setting [10]), −0.20. This molecule registered a Cholesterol-free in assay [2] (setting [14]) of 1.481. The same molecule yielded a Complete in assay [2] (NCI-H292 cells, complete media) of 1.28.
For Fenoldopam (mesylate), in assay [1] (setting [3]), the “Cholesterol-free media + simvastatin (0.04 μM)” value stood at 1.028. Besides, the “Complete Media” value in assay [1] (setting [4]) was found to be 0.7708. For the same molecule, the Difference in assay [1] (setting [9]) is on record as −0.26; in assay [2] (setting [15]), −0.12. The Cholesterol-free in assay [2] (setting [16]) came out at 0.8131. In assay [2] (setting [8]), this molecule displayed a Complete of 0.6882.
As for `N[C@H](C(=O)O)[C@H](O)c1ccc(O)c(O)c1` [Droxidopa], the “Cholesterol-free media + simvastatin (0.04 μM)” value in assay [1] (setting [3]) stood at 1.236. Moreover, in assay [1] (setting [4]), the “Complete Media” value is given as 1.023. The results for the Difference in assay [1] (setting [9]) and in assay [2] (setting [17]) were −0.21 and 0.24, respectively. Also, the Cholesterol-free in assay [2] (setting [11]) turned out to be 0.9972. This molecule displayed a Complete in assay [2] (setting [12]) of 1.24.
For the molecule `Nc1ncnc2c1ncn2[C@@H]1O[C@H](CO)[C@@H](O)[C@H]1O` [Adenosine], in assay [1] (NCI-H292 cells, FDA library drug in cholesterol-free media with simvastatin 0.04 μM), the “Cholesterol-free media + simvastatin (0.04 μM)” value is given as 1.888. For the same molecule, the “Complete Media” value in assay [1] (NCI-H292 cells, FDA library drug in complete media) stood at 1.6. Besides, the Difference in assay [1] (setting [9]) is given as −0.29; in assay [2] (setting [15]) it was −0.14. Besides, the Complete in assay [2] (setting [8]) is reported as 0.8055.
Turning to `CC(N)CCCC(C)(C)O` (stereo not shown) [Heptaminol (hydrochloride)], in assay [1] (setting [3]), the “Cholesterol-free media + simvastatin (0.04 μM)” value turned out to be 1.069. The “Complete Media” value in assay [1] (setting [4]) was found to be 0.8484. The Difference in assay [1] (setting [9]) is on record as −0.22; in assay [2] (setting [10]) it was −0.27. Further, the Cholesterol-free in assay [2] (setting [14]) is reported as 0.8584. This molecule also displayed a Complete in assay [2] (NCI-H292 cells, complete media) of 0.5894.
On to `CO/N=C(\C(=O)N[C@@H]1C(=O)N2C(C(=O)O)=C(COC(C)=O)CS[C@H]12)c1csc(N)n1` [Cefotaxime (sodium salt)], for which, in assay [1] (setting [7]), the “Cholesterol-free media + simvastatin (0.04 μM)” value worked out at 1.284. Also, the “Complete Media” value in assay [1] (setting [8]) stood at 1.139. Besides, the Difference in assay [1] (setting [9]) was −0.15; in assay [2] (complete vs cholesterol-free media, greater than 0 enhanced anti-cancer activity, about 0 neutral, below 0 antagonists) it was −0.31. The molecule further showed a Cholesterol-free in assay [2] (setting [14]) of 1.268. The molecule further showed a Complete in assay [2] (NCI-H292 cells, complete media) of 0.9622.
For Primaquine (Diphosphate), in assay [1], the “Cholesterol-free media + simvastatin (0.04 μM)” value stood at 1.421, the “Complete Media” value was found to be 1.652 and the Difference is reported as 0.23. In assay [2], the Cholesterol-free was determined as 1.192, the Complete worked out at 0.8514 and the Difference is −0.34.
For the molecule `CC(C)[C@H](N)C(=O)OCC(CO)OCn1cnc2c(=O)nc(N)[nH]c21` (stereo partly shown) [Valganciclovir (hydrochloride)], in assay [1] (setting [7]), the “Cholesterol-free media + simvastatin (0.04 μM)” value is given as 0.9599. Besides, the “Complete Media” value in assay [1] (setting [8]) worked out at 1.178. In addition, the Difference in assay [1] (setting [13]) is listed as 0.22; in assay [2] (setting [10]) it was −0.03. The Cholesterol-free in assay [2] (setting [11]) is recorded as 1.042. In assay [2] (setting [12]), this molecule yielded a Complete of 1.007.
In the case of `O=C(O)C[C@@H]1CC[C@H](NC(=O)Cc2cccs2)B(O)O1` [Vaborbactam], the “Cholesterol-free media + simvastatin (0.04 μM)” value in assay [1] (setting [18]) came to 0.8544. In addition, in assay [1] (setting [19]), the “Complete Media” value was 0.8532. Further, the Difference in assay [1] (setting [20]) is 0.00; in assay [2] (setting [10]) it was 0.06. The molecule further came in with a Cholesterol-free in assay [2] (setting [11]) of 0.9017. For the same molecule, the Complete in assay [2] (setting [12]) is 0.9648.
On to `Cc1ncc(COP(=O)(O)O)c(C=O)c1O` [Pyridoxal phosphate], for which the “Cholesterol-free media + simvastatin (0.04 μM)” value in assay [1] (setting [3]) is on record as 1.11. The “Complete Media” value in assay [1] (setting [4]) was 0.9056. Also, the Difference in assay [1] (setting [9]) is given as −0.20; in assay [2] (setting [17]), 0.47. Besides, the Cholesterol-free in assay [2] (setting [11]) is given as 1.045. Moreover, the Complete in assay [2] (setting [12]) came out at 1.512.
Take `O=C1CN(/N=C/C=C/c2ccc([N+](=O)[O-])o2)C(=O)N1` [Furagin]: the “Cholesterol-free media + simvastatin (0.04 μM)” value in assay [1] (setting [18]) was 1.137. Also, the “Complete Media” value in assay [1] (setting [19]) was determined as 1.079. Moreover, the Difference in assay [1] (setting [20]) is recorded as −0.06; in assay [2] (setting [10]), −0.23. In assay [2] (setting [14]), the Cholesterol-free was 1.216. In addition, in assay [2] (NCI-H292 cells, complete media), the Complete turned out to be 0.9861.
Take “Angiotensin II 5-valine (DRVYVHPF; Angiotensin-2; UniProt P01019 25-32, looked up, variant I5V)”: the “Cholesterol-free media + simvastatin (0.04 μM)” value in assay [1] (setting [7]) was 2.07. Moreover, the Difference in assay [1] (complete media minus cholesterol-free media + simvastatin (0.04 μM), […]) is reported as −0.98; in assay [2] (complete vs cholesterol-free media, […]) it was 0.22. The same molecule showed a Cholesterol-free in assay [2] (setting [11]) of 0.8655. This molecule also gave a Complete in assay [2] (setting [12]) of 1.09.
For the molecule `NC1=NCC2c3ccccc3Cc3ccccc3N12` (stereo not shown) [Epinastine], in assay [1], the “Cholesterol-free media + simvastatin (0.04 μM)” value is 0.9831, the “Complete Media” value is on record as 0.9656 and the Difference is listed as −0.02. In assay [2], the Cholesterol-free was found to be 0.9643, the Complete is given as 0.9792 and the Difference was 0.01.
`C[C@](N)(Cc1ccc(O)cc1)C(=O)O` [Metyrosine]: the “Cholesterol-free media + simvastatin (0.04 μM)” value in assay [1] (setting [18]) is recorded as 0.9769. Besides, in assay [1] (setting [19]), the “Complete Media” value is 0.9769. Moreover, the Difference in assay [1] (setting [20]) is recorded as 0.00; in assay [2] (setting [15]), −0.10. Also, the Cholesterol-free in assay [2] (setting [16]) worked out at 1.606. The Complete in assay [2] (setting [8]) amounted to 1.504.
`CCCN[C@H]1CCc2nc(N)sc2C1` [Pramipexole]: the “Cholesterol-free media + simvastatin (0.04 μM)” value in assay [1] (setting [18]) stood at 1.074. The “Complete Media” value in assay [1] (setting [19]) was found to be 1.035. Besides, the Difference in assay [1] (setting [20]) was −0.04; in assay [2] (Complete minus Cholesterol-free, greater than 0 enhanced anti-cancer activity, about 0 neutral, below 0 antagonists), −0.68. This molecule showed a Cholesterol-free in assay [2] (setting [5]) of 1.519. This molecule also came in with a Complete in assay [2] (setting [6]) of 0.8353.
Consider `CN(C)/N=N/c1[nH]cnc1C(N)=O` [Dacarbazine], for which, in assay [1] (setting [7]), the “Cholesterol-free media + simvastatin (0.04 μM)” value is recorded as 1.089. In addition, the “Complete Media” value in assay [1] (setting [8]) worked out at 0.9656. Moreover, the values for the Difference in assay [1] (setting [9]) and in assay [2] (setting [15]) were −0.12 and −0.11, respectively. The same molecule registered a Cholesterol-free in assay [2] (setting [16]) of 1.191. Further, the Complete in assay [2] (setting [8]) is reported as 1.077.
For the molecule `Cc1cc2cc3c(C)cc(=O)oc3c(C)c2o1` [Trioxsalen], in assay [1] (setting [7]), the “Cholesterol-free media + simvastatin (0.04 μM)” value is listed as 1.056. The “Complete Media” value in assay [1] (setting [8]) is listed as 0.9717. Further, the results for the Difference in assay [1] (setting [9]) and in assay [2] (setting [17]) were −0.08 and 0.13, respectively. This molecule came in with a Cholesterol-free in assay [2] (setting [11]) of 1.107. The Complete in assay [2] (setting [12]) was determined as 1.239.
As for `COC(=O)C1=C(C#N)NC(C)=C(C(=O)OC(C)C)C1c1cccc([N+](=O)[O-])c1` (stereo not shown) [Nilvadipine], in assay [1] (setting [3]), the “Cholesterol-free media + simvastatin (0.04 μM)” value is on record as 1.579. Further, the “Complete Media” value in assay [1] (setting [4]) is on record as 1.393. For the same molecule, the figures for the Difference in assay [1] (setting [9]) and in assay [2] (setting [10]) were −0.19 and −0.27, respectively. For the same molecule, the Cholesterol-free in assay [2] (setting [14]) turned out to be 1.059. Also, the Complete in assay [2] (NCI-H292 cells, complete media) is 0.7875.
